Data reported in patent publication US20240389581A1, “SYNERGISTIC PESTICIDAL COMPOSITIONS AND METHODS FOR DELIVERY OF INSECTICIDAL ACTIVE INGREDIENTS” (TERRAMERA, INC., priority 2021, published 2024).

What was measured:
[1] = test system: Trichoplusia ni (cabbage looper) larvae; assay: In-vitro insecticidal efficacy (mortality and bioactivity, treated artificial diet, Abbott and Colby formulas) against Trichoplusia ni; type: in vivo; details: aliphatic acid (salt) 500 ppm, alone or combined; for Survival Rate (100-(mortality + stunted)): Table 70B, Coragen 0.505 ppm (0.09292 ppm chlorantraniliprole)
Method: An artificial diet suitable for Trichoplusia ni (cabbage looper caterpillar) was prepared from a commercially available general purpose lepidoptera artificial diet premix (such as General Purpose Lepidoptera Diet available from Frontier Scientific Services, Newark, DE) and mixed in a heated liquid agar media (0.022 g agar per ml of water). The liquid artificial diet and agar media was then used to fill each well of a transparent 96-well treatment plate with 200 μL of the artificial diet and agar media, which was allowed to solidify at room temperature and stored at approximately 4 C.
A 20 μL treatment sample of each treatment formulation was then placed on top of the solidified artificial diet media in a well of a 96 well plate and allowed to dry overnight.
(§1) The following day, one neonate Trichoplusia ni (cabbage looper) larva (hatched from eggs obtained from the Benzon Research, Inc. of Carlisle, PA, USA) was added to each well of the plate, after which the wells were sealed with a perforated transparent film, allowing air and moisture exchange. The plates were kept in a suitable regulated indoor incubation environment and the larvae were allowed to feed on the treatment overlaid diet/agar media for 5 days. […] Each experiment contained 8 replicates (larvae cells) for each treatment.
(§2) While for SF<1, antagonism is present and for SF=1, the efficacy of the compounds is merely additive.
as §1, with “such as available” for “obtained”, “from” for “from the”
as §2

[2] = test system: Trichoplusia ni (cabbage looper) larvae; assay: In-planta insecticidal efficacy (sprayed green cabbage plants, larval survival, Abbott and Colby formulas) against Trichoplusia ni; type: in vivo; details: aliphatic acid 750 ppm, alone or combined; for Observed Efficacy, W: Abbott formula
[3] = test system: Trichoplusia ni (cabbage looper) larvae; assay: as above; type: in vivo; details: Exirel at […] ([…] cyantraniliprole), aliphatic acids at 750 ppm; for Observed Efficacy, W (%): Abbott formula vs 10% isopropanol control; for Survival Rate (%): in-planta, T. ni larvae on sprayed cabbage, 10% isopropanol
Method: Water and 10% isopropanol were tested as control treatments.
Green cabbage plants (Brassica oleracea var. capitate, Danish Ballhead cultivar) were grown from seed (available from West Coast Seeds, Delta, BC, Canada) in potting soil for 4-6 weeks in a pest-free indoor growing environment. At between 4-6 weeks of age, each cabbage plant was sprayed with 20 mL of treatment solution using a pressurized CO2 sprayer from approximately 18 inches above the plant, and allowed to dry.
as §2
Cyantraniliprole was provided as the active ingredient in Exirel® insecticide (available from FMC Corp., Philadephia, PA, USA), and is present as 10% w/w of the Exirel® insecticide product formulation.

[4] = test system: Fusarium oxysporum; assay: Synergistic Growth Inhibition Assay (MIC / FIC index, 96-well microtiter, resazurin) against Fusarium oxysporum; type: cell-based; details: Compound B tested alone; 24 hour incubation
Method: In the Synergistic Growth Inhibition Assay used in accordance with some embodiments of the present disclosure, multiple dilutions of combinations of pesticidal active ingredient and at least one C6-C10 saturated or unsaturated aliphatic acid agents are tested in individual cells for inhibitory activity against a target pest or pathogenic organism. […] In a further such embodiment, the combinations of pesticidal active ingredient and C6-C10 (or alternatively C11 or C12) saturated or unsaturated aliphatic acid agents may be tested in increasing concentrations.
Thus, each well of the microtiter plate is a unique combination of the two agents, at which inhibitory efficacy of the combination against the target pest or pathogen can be determined.
In one embodiment according to the present disclosure, for each row of microtiter cells in the Synergistic Growth Inhibition Assay, the FIC index is calculated from the lowest concentration of the pesticidal active ingredient and one or more C6-C10 saturated or unsaturated aliphatic acid agents necessary to inhibit growth of a target pest or pathogen. The FIC of each component is derived by dividing the concentration of the agent present in that well of the microtiter plate by the minimal inhibitory concentration (MIC) needed of that agent alone to inhibit growth of the target pest or pathogen. […] The FIC index is calculated for each row as follows: […]

[5] = Table 69B, Coragen 0.2525 ppm (0.04646 ppm chlorantraniliprole), in-vitro
[6] = Table 72, Coragen […] (0.104 ppm chlorantraniliprole)
[7] = Table 71, Coragen […] (0.105 ppm chlorantraniliprole)

O=C(O)CCCCCCCCCO [10-hydroxydecanoic acid]
Survival Rate (100-(mortality + stunting)) [1, 5]: 75.00%
Survival Rate [2, 6]: 73.50%
Observed Efficacy, W ([2]; Table 72, Coragen […]): 0.00%
Survival Rate ([2]; Table 73, Coragen […] (0.104 ppm chlorantraniliprole)): 40.50%
Observed Efficacy, W ([2]; Table 73, Coragen […]): 36.72%

CCC(C)CCC(=O)O (stereo not drawn) [4-methylhexanoic acid]
Survival Rate (100-(mortality + stunting)) [1, 5]: 100.00%

CC/C=C\CC(=O)O [cis-3-hexenoic acid]
Survival Rate (100-(mortality + stunting)) [1, 5]: 83.33%

CCCCC(O)C(=O)O (stereo not drawn) [2-hydroxyhexanoic acid]
Survival Rate (100-(mortality + stunting)) [1, 5]: 91.67%

CCCCCCCC/C=C/C(=O)O [trans-2-undecenoic acid]
Survival Rate (100-(mortality + stunting)) [1, 5]: 87.50%

CCC/C=C/C(=O)[O-].[K+] [trans-2-hexenoic acid potassium salt]
Survival Rate (100-(mortality + stunting)) [1, 5]: 91.67%
Survival Rate (100-(mortality + stunted)) ([1]; in-vitro): 83.33%

CCCCCCCC(=O)O [Octanoic acid]
Survival Rate (100-(mortality + stunted)) ([1]; in-vitro): 95.83%

C/C=C/C=C/C(=O)O [(2E,4E)-2,4 hexadienoic acid]
Survival Rate (100-(mortality + stunting)) [1, 5]: 79.17%

CCCCCC=CCC(=O)O [3-nonenoic acid]
Survival Rate (100-(mortality + stunted)) ([1]; in-vitro): 95.83%

CCCCCCCCC(=O)O [Nonanoic acid]
Survival Rate (100-(mortality + stunting)) [1, 5]: 95.83%
Survival Rate (100-(mortality + stunted)) ([1]; in-vitro): 62.50%

CCCCCC/C=C/C(=O)O [trans-2-nonenoic acid]
Survival Rate (100-(mortality + stunting)) [1, 5]: 75.00%
Survival Rate (100-(mortality + stunted)) ([1]; in-vitro): 100%

O=C(O)CCCCCCCCCCCO [12-hydroxydodecanoic acid]
Survival Rate (100-(mortality + stunting)) [1, 5]: 91.67%

CCCCCCCCCC(=O)[O-].[K+] [Potassium Caprate]
Observed Efficacy, W (%) [3]: 5.5%
Survival Rate (%) [3]: 69.7%

CCCCCCC(C)CC(=O)O (stereo not drawn) [3-methylnonanoic acid]
Survival Rate (100-(mortality + stunting)) [1, 5]: 79.17%

CCCC(C)CC(=O)O (stereo not drawn) [3-methylhexanoic acid]
Survival Rate (100-(mortality + stunting)) [1, 5]: 83.33%

C/C=C/C=C/C(=O)[O-].[K+] [(2E,4E)-2,4 hexadienoic acid potassium salt]
Survival Rate (100-(mortality + stunting)) [1, 5]: 95.83%
Survival Rate (100-(mortality + stunted)) ([1]; in-vitro): 70.83%

CCC/C=C/C(=O)[O-].[K+] [trans-2-Hexenoic acid, potassium salt]
Observed Efficacy, W (%) [3]: 11.3%
Survival Rate (%) [3]: 73.6%

CCC/C=C/C(=O)O [Trans-2-hexenoic acid, trans-2-hexenoic acid]
Survival Rate (100-(mortality + stunting)) [1, 5]: 91.67%
Survival Rate [2, 7]: 56.50%
Observed Efficacy, W ([2]; Table 71, Coragen […]): 18.71%

CCCCCCCCC(C)C(=O)O (stereo not drawn) [2-methyldecanoic acid]
Survival Rate (100-(mortality + stunting)) [1, 5]: 87.50%

CCCCC=CCC(=O)O [3-Octenoic acid, 3-octenoic acid]
Survival Rate (100-(mortality + stunting)) [1, 5]: 83.33%

CCCCCCCC(O)CC(=O)O (stereo not drawn) [3-hydroxdecanoic acid]
Survival Rate (100-mortality) ([1]; Table 69A, Coragen 0.2525 ppm (0.04646 ppm chlorantraniliprole), in-vitro): 100.00%
Observed Efficacy (mortality), W ([1]; Table 69A, Coragen 0.2525 ppm, Abbott formula): 0.00%
Survival Rate (100-(mortality + stunting)) [1, 5]: 87.50%
Observed Efficacy (bioactivity), W ([1]; Table 69B, bioactivity = mortality + growth stunting, Coragen 0.2525 ppm, Abbott formula): 0.00%

CCCCC/C=C/C(=O)O [Trans-2-octenoic acid, trans-2-octenoic acid]
Survival Rate (100-(mortality + stunting)) [1, 5]: 70.83%
Survival Rate (100-(mortality + stunted)) ([1]; in-vitro): 87.50%
Survival Rate [2, 6]: 77.00%
Observed Efficacy, W ([2]; Table 72, Coragen […]): 0.00%

CCCCCCCCCCCC(=O)O [Dodecanoic acid]
Survival Rate (100-(mortality + stunting)) [1, 5]: 79.17%

C=CCCCC(=O)O [5-hexenoic acid]
Survival Rate (100-(mortality + stunting)) [1, 5]: 100.00%

C/C=C/C=C/C(=O)O [(2E,4E)-2,4-hexadienoic acid]
MIC (B) [4]: 125 µg/mL

C=CCCCCCCCC(=O)O [9-Decenoic acid, 9-decenoic acid]
Survival Rate (100-(mortality + stunting)) [1, 5]: 91.67%
Observed Efficacy, W (%) [3]: −0.4%
Survival Rate (%) [3]: 65.8%

CCCCCC(=O)O [Hexanoic acid]
Survival Rate (100-(mortality + stunting)) [1, 5]: 87.50%
Survival Rate (100-(mortality + stunted)) ([1]; in-vitro): 100%
MIC (B) [4]: 290 µg/mL

CCCCCCC(C)C(=O)O (stereo not drawn) [2-methyloctanoic acid]
Survival Rate (100-(mortality + stunting)) [1, 5]: 95.83%

CCCCC(CC)C(=O)O (stereo not drawn) [2-ethylhexanoic acid]
Survival Rate (100-(mortality + stunting)) [1, 5]: 95.83%

CCCC/C=C/CC(=O)O [trans-3-octenoic acid]
Survival Rate (100-(mortality + stunting)) [1, 5]: 83.33%

CCCC=CCC(=O)O [3-heptenoic acid]
Survival Rate (100-(mortality + stunted)) ([1]; in-vitro): 95.83%

CC/C=C/CC(=O)O [Trans-3-hexenoic acid, trans-3-hexenoic acid]
Survival Rate (100-(mortality + stunting)) [1, 5]: 91.67%
Survival Rate [2, 7]: 64.50%
Observed Efficacy, W ([2]; Table 71, Coragen […]): 7.19%

CC(O)CC(=O)O (stereo not drawn) [3-Hydroxybutyric acid, 3-hydroxybutyric acid]
Survival Rate (100-(mortality + stunting)) [1, 5]: 95.83%

CCCCCCC(=O)O [Heptanoic acid]
Survival Rate (100-(mortality + stunting)) [1, 5]: 91.67%

CCCCCCC(O)C(=O)O (stereo not drawn) [2-hydroxyoctanoic acid]
Survival Rate (100-(mortality + stunting)) [1, 5]: 100.00%

CCCCCCCCCC(=O)O [Decanoic acid]
Survival Rate (100-(mortality + stunting)) [1, 5]: 83.33%

CC/C=C/CC(=O)[O-].[K+] [trans-3-Hexenoic acid, potassium salt]
Observed Efficacy, W (%) [3]: 7.1%
Survival Rate (%) [3]: 70.8%

CCCCCCC/C=C/C(=O)O [Trans-2-decenoic acid, trans-2-decenoic acid]
Survival Rate (100-(mortality + stunting)) [1, 5]: 79.17%
Survival Rate (%) [3]: 66.1%
Survival Rate [2, 6]: 81.00%
Observed Efficacy, W ([2]; Table 72, Coragen […]): 0.00%
